According to ChEMBL document CHEMBL1201862, “PubChem BioAssay data set” (2004):
Calls of active or inactive are those of the source.

Columns and labels:
[1] = Luminescent dose response cell-based high throughput screening assay for inhibitors of the Janus kinase 2 mutant JAK2V617F. [Related pubchem assays: 1446 (Primary screen.), 1521 (Confirmation assay.), 1486 (Counter screen.)]; type: functional
[2] = target: T1, Heat shock factor protein 1 (Mus musculus, UniProt P38532); experiment: decrease of HSF1-responsive luciferase luminescence – cell-based, NIH3T3, dose retest, confirmation (AID 2382); type: functional;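 note: NIH3T3 fibroblasts with HSF1-driven luciferase reporter stressed by proteasome inhibitor MG132; luminescence from HSF1-driven luciferase expression after 8 hours of MG132 stress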
T1 sequence (P38532 whole entry): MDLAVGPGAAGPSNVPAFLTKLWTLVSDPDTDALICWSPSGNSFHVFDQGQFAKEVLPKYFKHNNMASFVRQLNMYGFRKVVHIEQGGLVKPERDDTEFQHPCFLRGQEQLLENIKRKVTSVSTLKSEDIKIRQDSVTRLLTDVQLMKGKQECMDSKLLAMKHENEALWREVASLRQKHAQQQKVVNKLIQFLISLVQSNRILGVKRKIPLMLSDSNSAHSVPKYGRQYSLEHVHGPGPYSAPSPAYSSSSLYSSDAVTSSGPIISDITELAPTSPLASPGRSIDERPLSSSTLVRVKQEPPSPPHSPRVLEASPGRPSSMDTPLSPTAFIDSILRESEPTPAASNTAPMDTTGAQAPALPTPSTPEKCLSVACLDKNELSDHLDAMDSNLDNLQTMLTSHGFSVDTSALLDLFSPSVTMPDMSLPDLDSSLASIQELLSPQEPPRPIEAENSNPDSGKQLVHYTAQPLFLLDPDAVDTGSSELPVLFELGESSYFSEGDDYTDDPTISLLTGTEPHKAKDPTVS

[3] = target: T2, Cytochrome P450 2C19 (Homo sapiens, UniProt P33261); experiment: Cytochrome panel assay with activity outcomes. Panel member name: p450-cyp2c19 Compounds with AC50 equal or less than 10 uM are considered active; type: functional
[4] = target: T3, Estrogen receptor beta (Homo sapiens, UniProt Q92731);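 note: recombinant ER-beta bound to coactivator SRC1 peptide in presence of estradiol agonist; inhibitors block coactivator peptide binding and lower the FRET signal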
[5] = target: T3, Estrogen receptor beta; experiment: blockers of SRC-3 recruitment to ERβ – biochemical, ELISA, streptavidin-HRP readout, orthogonal assay, confirmation (AID 1060)
[6] = target: Ubiquitin carboxyl-terminal hydrolase BAP1 (Homo sapiens, UniProt Q92560); experiment: inhibition of BAP1 ubiquitin hydrolase activity – biochemical, dose response (AID 714); type: functional
[7] = target: T1, Heat shock factor protein 1; experiment: enhancement of HSF1-driven luciferase signal – cell-based, NIH3T3, luminescence, dose retest, confirmation (AID 435004); type: functional;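 note: stress induced by proteasome inhibitor MG132 added 30 min after compound; luciferase reporter driven by HSF1 response element in NIH3T3 cells; actives raise luminescence as potentiators of the MG132 stress response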
[8] = blockers of HIV-1 envelope-mediated cell-cell fusion – cherry-pick, dose response (AID 652057); type: functional, cell-based
[9] = viability loss in CEM21 cells – cell-based, CellTiter-Glo luminescence, cherry-picked, cytotoxicity control for viral fusion inhibitor project, dose response (AID 652042); type: functional;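 note: potency for signal decrease meaning cytotoxicity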
[10] = blockers of HIV-1 ZM109 envelope-driven cell-cell fusion – HeLa effector, CEM target cells, luciferase, cherry-pick, dose response (AID 652058); type: functional, cell-based;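 note: luciferase signal from HIV-1 Env mediated cell-cell fusion of effector and target cells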
[11] = off-target signal loss in HeLa-CEM21 co-culture – HeLa F-luc CTL cells, cherry-picked, counter-screen for HIV-1 Env fusion inhibitor project, dose response (AID 652040); type: functional, cell-based;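 note: potency for signal decrease marking cytotoxic or nonspecific inhibition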
[12] = HIV-1 AD8 envelope cell-cell fusion blockers – cherry-pick, dose response (AID 652062); type: functional, cell-based;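 note: luciferase signal from cell-cell fusion driven by HIV-1 clade B AD8 Env; potency is for inhibitors of fusion seen as a drop in luminescence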
[13] = target: T2, Cytochrome P450 2C19; experiment: qHTS Assay for Inhibitors and Substrates of Cytochrome P450 2C19. [Related pubchem assays: 410 ]; type: ADME; conditions: read-out: Potency
[14] = Luminescence Cell-Based Dose Response to Identify Activators of 5'UTR Stem-Loop Driven Prion Protein mRNA Translation in H4-C Neuroglioblastoma Cells. [Related pubchem assays: 1829 (Project Summary), 1814 (Primary HTS)]; type: functional
[15] = Luminescence Cell-Based Dose Response HTS to Identify Activators of Luciferase Translation or Activity in H4 […] Cells. [Related pubchem assays: 1829 (Project Summary), 1814 (Primary HTS)]; type: functional
[16] = test system: H4; experiment: Luminescence Cell-Based Dose Response HTS to Identify Activators of 5'UTR Stem-Loop Driven Prion Protein mRNA Translation in H4 Neuroglioblastoma Cells. [Related pubchem assays: 1829 (Project Summary), 1814 (Primary HTS)]; type: functional; conditions: Homo sapiens
[17] = Luminescence Cell-Based Dose Response to Identify Activators of Luciferase Translation or Activity in H4-C Neuroglioblastoma Cells. [Related pubchem assays: 1829 (Project Summary), 1814 (Primary HTS)]; type: functional
[18] = Luminescence Cell-Based Dose Confirmation to Identify Activators of 5'UTR Stem-Loop Driven Alpha-Synuclein mRNA Translation in H4 Neuroglioblastoma Cells. [Related pubchem assays: 1829 (Project Summary), 1814 (Primary HTS)]; type: functional
[19] = test system: A-375; experiment: MITF: Counter assay: A375 proliferation Measured in Cell-Based System Using Plate Reader - 2084-03_Inhibitor_Dose_DryPowder_Activity. [Related pubchem assays (depositor defined):AID488944]; type: functional; conditions: Homo sapiens
[20] = test system: HeLa; experiment: ATP-based viability loss in HeLa cells – cell-based, CellTiter-Glo luminescence, cherry-pick samples, cytotoxicity control for MITF activator project, dose response (AID 540259); type: functional; conditions: Homo sapiens
[21] = test system: A-375; experiment: proliferation inhibition in MITF-low A375 cells – cell-based, cherry-pick samples, set 2, counter-screen for MITF modulator project, dose response (AID 540335); type: functional; conditions: Homo sapiens
[22] = target: Glyceraldehyde-3-phosphate dehydrogenase (Homo sapiens, UniProt P04406)
[23] = target: T4, Bcl-2-related protein A1 (Mus musculus, UniProt Q07440); experiment: small-molecule antagonists of Bfl-1/BH3 interaction – biochemical, TR-FRET, mouse Bfl-1, confirmation (AID 621);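 note: TR-FRET binding of GST-Bfl-1 to FITC-labelled Bid peptide via terbium antibody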
T4 sequence (Q07440 whole entry): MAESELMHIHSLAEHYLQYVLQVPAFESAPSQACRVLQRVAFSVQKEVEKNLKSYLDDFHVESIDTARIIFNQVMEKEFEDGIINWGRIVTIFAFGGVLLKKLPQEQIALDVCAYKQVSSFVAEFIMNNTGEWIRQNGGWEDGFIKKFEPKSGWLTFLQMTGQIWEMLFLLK

[24] = target: T4, Bcl-2-related protein A1; experiment: Bfl-1 binding inhibitors, SAR follow-up, biochemical, fluorescence polarization (AID 1070)

T3 sequence (Q92731 whole entry): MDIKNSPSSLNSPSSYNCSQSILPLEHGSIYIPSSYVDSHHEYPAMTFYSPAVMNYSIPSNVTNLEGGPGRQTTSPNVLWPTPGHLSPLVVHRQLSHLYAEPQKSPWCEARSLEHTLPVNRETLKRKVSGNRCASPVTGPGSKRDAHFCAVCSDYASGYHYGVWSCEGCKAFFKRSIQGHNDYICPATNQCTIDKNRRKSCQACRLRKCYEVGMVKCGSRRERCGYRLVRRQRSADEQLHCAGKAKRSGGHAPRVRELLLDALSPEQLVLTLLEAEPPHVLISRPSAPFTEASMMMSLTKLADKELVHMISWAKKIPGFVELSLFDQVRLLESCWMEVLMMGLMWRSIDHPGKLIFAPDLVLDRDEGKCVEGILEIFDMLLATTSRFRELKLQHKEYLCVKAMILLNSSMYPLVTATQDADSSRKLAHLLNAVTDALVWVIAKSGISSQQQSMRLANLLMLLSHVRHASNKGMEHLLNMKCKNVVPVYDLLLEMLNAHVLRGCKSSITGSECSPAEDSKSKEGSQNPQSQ
T2 sequence (P33261 whole entry): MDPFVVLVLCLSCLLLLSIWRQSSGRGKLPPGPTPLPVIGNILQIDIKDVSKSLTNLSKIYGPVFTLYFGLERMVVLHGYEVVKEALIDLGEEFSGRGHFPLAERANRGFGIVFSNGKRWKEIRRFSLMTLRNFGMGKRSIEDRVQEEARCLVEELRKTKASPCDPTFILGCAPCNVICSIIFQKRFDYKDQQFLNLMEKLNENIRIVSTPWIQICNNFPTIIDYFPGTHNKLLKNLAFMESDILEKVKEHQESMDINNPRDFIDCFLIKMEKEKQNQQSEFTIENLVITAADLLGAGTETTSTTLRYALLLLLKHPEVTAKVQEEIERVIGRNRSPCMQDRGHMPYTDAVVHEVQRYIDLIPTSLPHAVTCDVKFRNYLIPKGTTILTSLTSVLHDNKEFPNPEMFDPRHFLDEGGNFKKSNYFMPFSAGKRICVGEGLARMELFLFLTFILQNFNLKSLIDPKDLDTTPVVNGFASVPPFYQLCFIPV
Sequence of Ubiquitin carboxyl-terminal hydrolase BAP1 (Q92560 whole entry): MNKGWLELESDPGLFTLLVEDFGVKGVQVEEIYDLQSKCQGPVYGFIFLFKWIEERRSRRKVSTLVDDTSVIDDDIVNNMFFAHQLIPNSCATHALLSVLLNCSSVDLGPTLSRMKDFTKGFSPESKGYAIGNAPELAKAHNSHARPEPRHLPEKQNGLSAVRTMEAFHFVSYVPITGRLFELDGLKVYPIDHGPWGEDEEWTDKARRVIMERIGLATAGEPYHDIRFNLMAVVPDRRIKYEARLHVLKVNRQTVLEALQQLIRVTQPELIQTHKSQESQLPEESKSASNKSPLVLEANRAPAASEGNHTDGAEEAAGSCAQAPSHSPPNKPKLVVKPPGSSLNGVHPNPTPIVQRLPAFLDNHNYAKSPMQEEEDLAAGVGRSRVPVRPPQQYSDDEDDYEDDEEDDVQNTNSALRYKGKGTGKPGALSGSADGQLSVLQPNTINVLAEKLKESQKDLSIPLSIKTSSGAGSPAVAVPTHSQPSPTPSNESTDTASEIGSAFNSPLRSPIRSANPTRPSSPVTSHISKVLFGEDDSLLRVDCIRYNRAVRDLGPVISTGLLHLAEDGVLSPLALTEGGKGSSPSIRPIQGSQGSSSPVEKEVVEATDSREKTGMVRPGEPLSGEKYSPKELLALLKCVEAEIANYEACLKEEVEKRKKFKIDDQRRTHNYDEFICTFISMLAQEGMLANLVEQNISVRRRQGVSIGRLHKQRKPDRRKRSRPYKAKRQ
Sequence of Glyceraldehyde-3-phosphate dehydrogenase (P04406 whole entry): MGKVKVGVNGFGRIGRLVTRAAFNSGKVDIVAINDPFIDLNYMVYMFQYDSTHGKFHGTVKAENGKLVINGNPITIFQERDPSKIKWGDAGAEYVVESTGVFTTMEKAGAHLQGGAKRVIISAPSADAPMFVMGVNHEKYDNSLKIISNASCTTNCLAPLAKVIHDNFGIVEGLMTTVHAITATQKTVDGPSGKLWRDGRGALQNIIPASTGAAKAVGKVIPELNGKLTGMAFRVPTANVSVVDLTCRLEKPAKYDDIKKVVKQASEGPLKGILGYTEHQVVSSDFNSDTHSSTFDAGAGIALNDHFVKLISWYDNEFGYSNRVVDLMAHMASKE

For `Nc1nc(N)c2nc(-c3ccccc3)c(N)nc2n1`, the IC50 [1] was 0.807 µM (active), the EC50 [2] was > 195 µM (not active) and the AC50 [3] was “inactive”.
For `N#Cc1ccsc1NC(=O)CSc1ncnc2ccccc12`, the IC50 [4] was > 50 µM (not active) and the IC50 [5] was < 0.023 µM (not active).
With `CC1=CC(C)(C)Nc2cc(C)c(C)cc21` the IC50 [6] was > 50 µM (not active).
For `O=C(Oc1ccc2c(c1)OCO2)c1cc2c(s1)CCC2`, the IC50 [4] was < 1.56 µM (active), the IC50 [5] was < 0.023 µM (not active) and the EC50 [7] was > 260 µM (inactive). For the same compound, the AC50 [8] was 10.4 µM (active), the AC50 [9] was 2.01 µM (active) and the AC50 [10] was 3.31 µM (active). The AC50 [11] was 10.8 µM (active) and the AC50 [12] was 7.2 µM (active).
In the case of `COc1cc([C@@H]2Oc3cc([C@H]4Oc5cc(O)cc(O)c5C(=O)[C@H]4O)ccc3O[C@H]2CO)ccc1O`, the AC50 [13] is reported as 15.8 µM (inconclusive).
In the case of `O=C(NCc1ccccc1)c1cnc2ccc(S(=O)(=O)Nc3ccc4c(c3)OCCO4)cc2c1O`, the IC50 [6] is reported as > 50 µM (not active).
With `COc1ccc(/C=N/N=C2/SCC(=O)N2Cc2ccccc2)cc1` the EC50 [14] was 0.361 µM (active), the EC50 [15] was < 0.1 µM (active) and the EC50 [16] was > 120 µM (not active). The EC50 [17] was 0.335 µM (active), the EC50 [18] was 0.581 µM (active) and the AC50 [19] was > 35 µM (active). The AC50 [20] was 164 µM (active) and the AC50 [21] was > 35 µM (active).
In the case of `CC(C)(C)/C(O)=C/c1nc2cc(Cl)ccc2oc1=O`, the IC50 [1] is reported as 1.7 µM (active).
In the case of `COc1ccccc1N1CCN(C2=C(Cl)C(=O)N(c3ccc(Cl)c(Cl)c3)C2=O)CC1`, the IC50 [22] is reported as > 100 µM (not active), the IC50 [23] is reported as 6.25 µM (active) and the IC50 [24] is reported as 9.57 µM (active).
With `O=C1C(Cl)=C(N2CCOCC2)C(=O)N1c1ccc(Cl)c(Cl)c1` the IC50 [22] was > 100 µM (not active), the IC50 [23] was 1.29 µM (active) and the IC50 [24] was 1.51 µM (active).
With `CCCCCCC(=O)Cc1cc(OC)c(OC)cc1C=C(C(=O)OCC)C(=O)OCC` the AC50 [13] was 3.16 µM (inconclusive).
